Read-outs that look alike come from different tables or passages of the source.
Columns and labels:
OXA-48 [1] = target: T1, OXA-48 (Klebsiella pneumoniae, UniProt Q6XEC0); test: Apparent Km and Vmax of nitrocefin with inhibitor; Ki and α determination; assay type: biochemical; conditions: for type of reversible inhibition: Lineweaver–Burk plots, with respect to nitrocefin; for α value: mixed model inhibition fit
T1 construct: made in house; host or cells: E. coli BL21(DE3), T7 expression system
T1 sequence (Q6XEC0 23-265, looked up): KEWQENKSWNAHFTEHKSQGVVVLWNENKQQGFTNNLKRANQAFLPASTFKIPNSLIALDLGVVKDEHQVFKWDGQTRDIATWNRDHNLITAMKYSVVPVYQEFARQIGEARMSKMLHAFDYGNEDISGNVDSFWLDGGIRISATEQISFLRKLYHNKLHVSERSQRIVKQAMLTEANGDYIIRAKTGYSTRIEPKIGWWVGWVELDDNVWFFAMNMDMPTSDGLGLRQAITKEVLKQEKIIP
Protocol: To further elucidate the type of reversible inhibition of compounds ID1 and ID2, double substrate (nitrocefin) and inhibitor titrations were run.
In this study, the characterization of the type of reversible inhibition was performed by the determination of the apparent Km and Vmax of nitrocefin in the presence of three concentrations of the selected inhibitors.
Stock AC30, AC50, and AC70 solutions for selected compounds were prepared at 200X in 100% DMSO. 2X compounds were prepared by diluting stock AC30, AC50 and AC70 solutions 1:100 in 1X reaction buffer.
20 μL of 2X compounds with 1% DMSO; 10 μL 4X enzyme (0.0014 ng/µL OXA-48 final concentration) were dispensed into preincubation plate and kept for 15′ at rt. […] Each compound ACn was tested in duplicate against each dose of nitrocefin. Compound activity was quantified on the fluorescence signal measured at 520 nm (kinetic measurement for 60 min of reaction). The initial velocity (V0) of the reaction was computed in the first 300′’ of measurements as robust slope. The slopes computed by Genedata Screener 13.0.5. were copied in GraphPad Prism (version 7.00, GraphPad Software Inc.) for the Michaelis-Menten analysis and the Lineweaver-Burk analysis. The average of slope replicates (n = 2) was transformed into double-reciprocal and linear regression analysis was applied.
a. When the Vmax value was independent from inhibitor concentration and the Km value of the substrate was directly proportional to the inhibitor concentration, the corresponding compound was assigned as competitive inhibitor.
V0 data obtained for the determination of apparent Km and Vmax of nitrocefin in the presence of three concentrations of the selected inhibitors, were used for the computation of Ki and a values using in GraphPad Prism (version 8.00, GraphPad Software Inc.) the mixed model inhibition/nonlinear regression curve fit method.

OXA-48 [2] = target: T1, OXA-48; test: Dilution after preincubation of OXA-48 with inhibitors; assay type: biochemical
Protocol: To confirm the reversibility of OXA-48 inhibition by compounds ID1 and ID2, dilution-after-preincubation tests were also performed. Specifically, the experiments were conducted by preincubating (0 and 60 min) five-fold concentrated test compounds and OXA-48 enzyme, next diluting (1:5) the assay well to the standard reaction conditions and adding the nitrocefin substrate. In parallel, a control experiment with compounds ID1 and ID2 tested under the standard protocol was also run. Based on the assay design, reversible inhibitors are expected to regain enzyme activity after dilution of the enzyme-inhibitor (EI) complex and show no significant difference between AC50 values from samples preincubated under high-concentration and standard conditions. Conversely, irreversible inhibitors are envisaged not to recover any enzyme activity following dilution of the tight EI complex, which will translate in a […] in OXA-48 AC50 of high-concentration preincubated samples.
In order to validate the results obtained in the time-dependent inhibition assay, dose–response curves of reference inhibitor tazobactam, test compounds and enzyme mix were prepared as above described and 5-fold concentrated. Compounds (20 μL of 10X compounds) and enzyme (10 μL 20X enzyme in order to have a 0.0014 ng/µL OXA-48 final concentration) were preincubated for a time period of 60 min with the selected compounds and 90 min with tazobactam. The preincubation time was identified in the time-dependent inhibition experiment as suitable to detect a shift of the IC50 value. At the end of preincubation, the mix was diluted 1:5 times to restore the standard assay conditions as described for time-dependent inhibition. The reactions were started by transferring of 15 μL of enzyme-compounds or control diluted from preincubation plate into assay plate and adding 5 μL 4X nitrocefin substrate (25 µM final concentration) after 60 or 90 min. In parallel, a control experiment was assembled under the same conditions, but omitting the preincubation time between compounds and OXA-48.
a. If the AC50 value observed in the standard assay conditions was substantially unaffected by the preincubation with the 5X samples, the corresponding compound was classified as putative reversible inhibitor.

E. coli ATCC BAA-2523 = test: MIC by broth microdilution, β-lactam-resistant strain producing OXA-48; assay type: cell-based, Escherichia coli; conditions: Escherichia coli, ATCCBAA2523, no β-lactam, BLI tested at 32 µg/mL, read-out: MIC, BLI alone
Source text: To evaluate the capability of restoring β-lactam susceptibility, the two most promising representatives of SC_2 (ID3) and SC_7 (ID2) were screened alone and in combination with ampicillin (AMP) and IMP against sensitive and resistant Gram-negative bacteria. Avibactam and tazobactam were also included in the MIC characterization as BLI reference compounds. Specifically, we used E. coli ATCC25922 as antibiotic-sensitive strain, while E. coli ATCC BAA-2523 and K. pneumoniae ATCC BAA-2524 as β-lactam-resistant bacteria, producing OXA-48 carbapenemase.
Test compounds and tazobactam were tested at 32 µg/mL, while avibactam was applied at 4 µg/mL. […] Both antibiotics were selected for the combination study as they can be hydrolyzed by the target OXA-48 enzyme.
MIC values were determined by the broth dilution method and interpreted using published guidelines described by Clinical and Laboratory Standards Institute (CLSI).
All BLIs were dissolved in 100% DMSO and they were tested at a fixed concentration of 32 µg/mL and 1% of DMSO final concentration. Avibactam was used as reference β-lactamase inhibitor. All antimicrobials were prepared in line with CLSI susceptibility testing standards. AMP (USP # 1033000; batch no. K1M493) was dissolved at 5.12 mg/mL, IMP (USP # 1337809; batch no. R038R0) and avibactam (Biochem # NXL 104; batch no. 20180726) were dissolved at 1.28 mg/mL in the respective solvents recommended by CLSI (2). Solutions at 4X the final concentrations of the test range were made in Cation adjusted Mueller-Hinton broth (CA-MHB, BD # 212322; batch no. 6117994; Expiry date: 29.02.2020) by serial dilutions, and then diluted 2-fold with CA-MHB (for antimicrobials alone), or with the BLIs/avibactam (for combinations of new/reference inhibitors and antimicrobials). Moreover, all BLIs were tested alone at a fixed concentration of 32 μg/mL. The final concentration of DMSO in the test tubes was 1% for each different combination.
50 μL of each well were then transferred from the masterblock into 96-well plates to whom were then added 50 μL of the final inoculum. MIC tests were performed by broth microdilution in line with CLSI susceptibility testing standards. Bacterial inocula were prepared at ca. 1 × 10^6 CFU/mL by diluting 100-fold a 0.5 McFarland suspension in CA-MHB with TES (TREK Diagnostic Systems, Product code: T3462; Batch: 356347; Expiry date: 12-Jun-2019). 50 μL of antibacterial solutions at 2 × the final concentrations were diluted 2-fold with 50 μL of inoculum to give a final inoculum of ca. 5 × 10^5 CFU/mL and desired test concentrations of antibacterial agents. Test plates were incubated according to CLSI guidelines and read visually. MIC values corresponded to the first well with no visible growth.

[3] = preincubation time 0 min, concentrated compound and enzyme, diluted 1:5 before nitrocefin, read-out: OXA-48 AC50, High Dose Preincubation
[4] = preincubation time 0 min, read-out: OXA-48 AC50, Standard Preincubation
[5] = preincubation time 60 min, concentrated compound and enzyme, diluted 1:5 before nitrocefin, read-out: OXA-48 AC50, High Dose Preincubation
[6] = preincubation time 60 min, read-out: OXA-48 AC50, Standard Preincubation

AC50 with concentrated preincubation relative to AC50 under standard assay protocol (OXA-48 [2]; 90 min preincubation)	AC50 (OXA-48 [2]; preincubation time 90 min, concentrated compound and enzyme, diluted 1:5 before nitrocefin, read-out: OXA-48 AC50, High Dose Preincubation) [nM]	AC50 (OXA-48 [2]; preincubation time 90 min, read-out: OXA-48 AC50, Standard Preincubation) [nM]	SMILES	type of reversible inhibition (OXA-48 [1])	α value (OXA-48 [1])	AC50 (OXA-48 [2]; [3]) [nM]	AC50 (OXA-48 [2]; [4]) [nM]	AC50 (OXA-48 [2]; [5]) [nM]	AC50 (OXA-48 [2]; [6]) [nM]	MIC (E. coli ATCC BAA-2523) [µg/mL]
–	–	–	O=C(O)c1ccc(C=Nn2c(S)nnc2-c2ccccc2)cc1 [ID1]	competitive	5.50	630	1730	1090	1930	–
–	–	–	CCc1ccc(-c2n[nH]c3nc(-c4ccc(C(=O)O)cc4)cc(C(=O)O)c23)cc1 [ID2]	competitive	5.44	1010	2310	1450	2440	> 32
almost three-fold lower	97	260	C[C@]1(Cn2ccnn2)[C@H](C(=O)O)N2C(=O)C[C@H]2S1(=O)=O [tazobactam, reference compound]	–	–	790	820	–	–	> 32

— paper PMC8308845, “Discovery of Novel Chemical Series of OXA-48 β-Lactamase Inhibitors by High-Throughput Screening” (Pharmaceuticals, 2021)
